Earlier results on one compound are cited in patent US20070297988A1, “Optical probes for in vivo imaging” (priority 2006, published 2007).

Structures are written as SMILES.

The conditions of series [1]: administered intravenously.
For series [2] the following is noted: degradation accelerated by light and heat.

`CC1(C)C(/C=C/C=C/C=C/C=C2\N(CCCCS(=O)(=O)O)c3ccc4ccccc4c3C2(C)C)=[N+](CCCCS(=O)(=O)[O-])c2ccc3ccccc3c21` [ICG, indocyanine green]: in series [1], the plasmatic half-life is 2 to 4 min and the protein binding entry was “extensive protein binding”. In series [2], the “stability in aqueous solution” value is recorded as “degraded in aqueous solution”.
